Data reported in patent US20170137410A1, “FUSED CYCLOALKYL-PYRIMIDINE COMPOUNDS AND USES THEREOF” (Medivation Technologies, Inc., priority 2014, published 2017).

Legend:
Assay type in all cases: biochemical
[1] = target: T1, FLT3 (ITD) (Homo sapiens, UniProt P36888); experiment: HotSpot kinase assay against FLT3 (ITD); conditions: HotSpot 33P assay, ATP 10 μM
T1 sequence (P36888 1-993): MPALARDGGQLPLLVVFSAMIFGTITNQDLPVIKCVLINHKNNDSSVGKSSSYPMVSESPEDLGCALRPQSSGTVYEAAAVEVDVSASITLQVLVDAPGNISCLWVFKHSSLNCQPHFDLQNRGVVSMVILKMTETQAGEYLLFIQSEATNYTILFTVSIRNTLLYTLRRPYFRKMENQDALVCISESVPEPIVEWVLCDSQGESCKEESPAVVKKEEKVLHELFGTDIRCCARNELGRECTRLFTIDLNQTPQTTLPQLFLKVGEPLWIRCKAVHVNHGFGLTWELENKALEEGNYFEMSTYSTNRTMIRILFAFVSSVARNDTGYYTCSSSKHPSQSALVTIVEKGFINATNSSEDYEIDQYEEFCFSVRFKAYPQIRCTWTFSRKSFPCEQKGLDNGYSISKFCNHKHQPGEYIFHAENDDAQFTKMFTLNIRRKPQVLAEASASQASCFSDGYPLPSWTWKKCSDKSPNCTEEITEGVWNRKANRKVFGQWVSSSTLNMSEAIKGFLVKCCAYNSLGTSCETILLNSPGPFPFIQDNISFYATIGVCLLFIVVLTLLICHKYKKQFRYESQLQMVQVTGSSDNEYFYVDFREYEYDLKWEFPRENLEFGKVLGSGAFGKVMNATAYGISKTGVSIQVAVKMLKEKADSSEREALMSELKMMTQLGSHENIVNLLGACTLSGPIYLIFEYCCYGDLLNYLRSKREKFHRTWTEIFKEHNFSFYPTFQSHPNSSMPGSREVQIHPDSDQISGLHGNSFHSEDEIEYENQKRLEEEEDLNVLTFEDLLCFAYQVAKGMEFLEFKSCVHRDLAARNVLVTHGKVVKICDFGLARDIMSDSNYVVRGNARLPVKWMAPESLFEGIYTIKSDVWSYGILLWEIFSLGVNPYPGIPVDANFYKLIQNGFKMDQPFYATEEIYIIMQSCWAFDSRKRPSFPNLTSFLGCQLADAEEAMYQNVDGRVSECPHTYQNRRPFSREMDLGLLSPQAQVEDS
Procedure: Kinase assays were performed using test compounds against a panel of FLT3 kinases: FLT3; FLT3 (D835Y); and FLT3 (ITD). Compounds were prepared as 10 mM stock solutions in DMSO prior to use in the assay. Each compound was tested at 10 concentrations with three-fold serial dilution starting at 1 μM against the three kinases. The control compound, staurosporine, was tested at 10 concentrations with four-fold serial dilution starting at 20 μM. IC50 values and curve fits were obtained using Prism (GraphPad Software). The screening was performed using the “HotSpot” assay platform. The assay measures the conversion of a peptide substrate to ^33P-labelled phosphorylated product. Briefly, specific kinase/substrate pairs along with required cofactors were prepared in reaction buffer. Specifically, the substrate was prepared in reaction buffer (20 mM Hepes, pH 7.5; 10 mM MgCl2; 1 mM EGTA; 0.02% Brij35; 0.02 mg/mL BSA; 0.1 mM Na3VO4; 2 mM DTT; 1% DMSO), followed by delivery of any required cofactor to the resulting substrate solution. The corresponding kinase was delivered into the substrate solution and the reaction mixture was mixed gently. Compound was delivered into the reaction mixture, followed 15-20 min later by addition of a mixture of ATP (Sigma, St. Louis Mo.) and ^33P ATP (specific activity 0.01 μCi/μL final; Perkin Elmer, Waltham, Mass.) to a final concentration of 10 μM to initiate the reaction. Reactions were carried out at RT for 120 min, followed by spotting of the reactions onto P81 ion exchange filter paper (Whatman #3698-915; Whatman Inc., Piscataway, N.J.). Unbound phosphate was removed by extensive washing of filters in 0.75% phosphoric acid. […] The percent of enzyme inhibition was calculated based on the percent of remaining kinase activity. IC50 values were determined.

[2] = target: ABL1 (Homo sapiens, UniProt P00519); experiment: HotSpot kinase assay against ABL1; conditions: HotSpot 33P assay, ATP 10 μM-30 μM
Chain of ABL1 (P00519 whole entry): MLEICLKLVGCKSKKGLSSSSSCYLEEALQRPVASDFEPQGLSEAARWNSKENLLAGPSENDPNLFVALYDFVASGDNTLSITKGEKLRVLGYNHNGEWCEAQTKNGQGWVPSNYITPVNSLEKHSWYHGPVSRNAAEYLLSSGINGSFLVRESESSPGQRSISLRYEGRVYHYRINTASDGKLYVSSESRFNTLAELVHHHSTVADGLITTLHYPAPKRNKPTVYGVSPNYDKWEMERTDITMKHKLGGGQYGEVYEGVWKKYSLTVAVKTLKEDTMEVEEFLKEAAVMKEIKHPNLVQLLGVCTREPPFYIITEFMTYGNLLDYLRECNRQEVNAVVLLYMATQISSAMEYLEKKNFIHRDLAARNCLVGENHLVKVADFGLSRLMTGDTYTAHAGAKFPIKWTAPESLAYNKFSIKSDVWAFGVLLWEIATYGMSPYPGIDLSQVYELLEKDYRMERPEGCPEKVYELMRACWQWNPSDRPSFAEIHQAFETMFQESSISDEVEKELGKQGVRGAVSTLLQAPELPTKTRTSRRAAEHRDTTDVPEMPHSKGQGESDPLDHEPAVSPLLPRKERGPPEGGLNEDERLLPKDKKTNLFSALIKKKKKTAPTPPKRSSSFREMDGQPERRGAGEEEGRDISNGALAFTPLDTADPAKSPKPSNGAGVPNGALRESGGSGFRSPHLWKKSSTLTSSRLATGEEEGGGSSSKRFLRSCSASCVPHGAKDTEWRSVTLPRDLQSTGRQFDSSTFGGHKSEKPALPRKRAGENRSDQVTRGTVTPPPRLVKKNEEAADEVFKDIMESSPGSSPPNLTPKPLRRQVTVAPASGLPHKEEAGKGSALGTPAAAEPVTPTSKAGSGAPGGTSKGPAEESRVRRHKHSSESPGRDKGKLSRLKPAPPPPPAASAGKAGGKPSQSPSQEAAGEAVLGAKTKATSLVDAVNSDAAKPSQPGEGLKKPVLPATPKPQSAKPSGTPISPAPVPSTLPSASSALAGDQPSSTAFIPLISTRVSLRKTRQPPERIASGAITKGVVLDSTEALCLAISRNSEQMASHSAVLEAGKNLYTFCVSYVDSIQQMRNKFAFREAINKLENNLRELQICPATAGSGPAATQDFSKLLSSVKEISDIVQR
Procedure: (§1) The screening was performed using the “HotSpot” assay platform. The assay measures the conversion of a peptide substrate to ^33P-labelled phosphorylated product. Briefly, specific kinase/substrate pairs along with required cofactors were prepared in reaction buffer. Specifically, the substrate was prepared in reaction buffer (20 mM Hepes, pH 7.5; 10 mM MgCl2; 1 mM EGTA; 0.02% Brij35; 0.02 mg/mL BSA; 0.1 mM Na3VO4; 2 mM DTT; 1% DMSO), followed by delivery of any required cofactor to the resulting substrate solution. The corresponding kinase was delivered into the substrate solution and the reaction mixture was mixed gently. Compound was delivered into the reaction mixture, followed 15-20 minutes later by addition of a mixture of ATP (Sigma, St. Louis Mo.) and ^33P ATP (specific activity 0.01 μCi/μL final; Perkin Elmer, Waltham, Mass.) to a final concentration of 10 μM-30 μM to initiate the reaction. Reactions were carried out at RT for 120 min, followed by spotting of the reactions onto P81 ion exchange filter paper (Whatman #3698-915; Whatman Inc., Piscataway, N.J.). Unbound phosphate was removed by extensive washing of filters in 0.75% phosphoric acid. […] The percent of enzyme inhibition was calculated based on the percent of remaining kinase activity. IC50 values and curve fits were obtained using Prism (GraphPad Software).

[3] = target: ABL2/ARG (Homo sapiens, UniProt P42684); experiment: HotSpot kinase assay against ABL2/ARG; conditions: HotSpot 33P assay, ATP 10 μM-30 μM
Chain of ABL2/ARG (P42684 whole entry): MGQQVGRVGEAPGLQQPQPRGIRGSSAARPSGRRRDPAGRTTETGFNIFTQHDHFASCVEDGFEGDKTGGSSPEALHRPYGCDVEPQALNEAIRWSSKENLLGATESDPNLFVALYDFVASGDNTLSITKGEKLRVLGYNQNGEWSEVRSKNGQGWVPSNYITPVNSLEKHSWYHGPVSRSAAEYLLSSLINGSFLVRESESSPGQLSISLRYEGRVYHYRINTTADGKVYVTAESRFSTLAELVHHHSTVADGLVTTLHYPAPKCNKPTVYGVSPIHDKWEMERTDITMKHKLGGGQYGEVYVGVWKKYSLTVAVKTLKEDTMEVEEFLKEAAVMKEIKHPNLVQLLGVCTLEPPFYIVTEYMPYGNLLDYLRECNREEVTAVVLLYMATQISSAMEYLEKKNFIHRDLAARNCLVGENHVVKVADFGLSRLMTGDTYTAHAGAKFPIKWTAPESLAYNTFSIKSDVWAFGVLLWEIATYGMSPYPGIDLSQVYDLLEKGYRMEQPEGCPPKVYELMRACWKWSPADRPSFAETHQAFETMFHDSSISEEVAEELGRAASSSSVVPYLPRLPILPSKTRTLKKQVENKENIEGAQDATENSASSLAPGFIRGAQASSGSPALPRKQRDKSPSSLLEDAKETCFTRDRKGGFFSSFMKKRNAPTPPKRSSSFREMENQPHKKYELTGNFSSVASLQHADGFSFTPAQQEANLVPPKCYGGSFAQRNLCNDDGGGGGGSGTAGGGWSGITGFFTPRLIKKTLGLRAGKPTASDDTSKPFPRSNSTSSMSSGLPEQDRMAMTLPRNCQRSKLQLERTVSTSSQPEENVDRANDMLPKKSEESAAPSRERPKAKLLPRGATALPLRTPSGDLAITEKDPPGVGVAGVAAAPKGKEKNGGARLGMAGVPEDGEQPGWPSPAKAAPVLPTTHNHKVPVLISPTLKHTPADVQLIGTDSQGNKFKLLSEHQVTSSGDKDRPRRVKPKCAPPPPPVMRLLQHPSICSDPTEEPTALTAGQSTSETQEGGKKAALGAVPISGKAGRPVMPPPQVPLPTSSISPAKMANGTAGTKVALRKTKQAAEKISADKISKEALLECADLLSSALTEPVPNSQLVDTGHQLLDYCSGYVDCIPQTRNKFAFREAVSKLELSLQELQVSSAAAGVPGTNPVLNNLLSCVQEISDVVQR
Procedure: as §1

| SMILES | IC50 [1] [nM] | IC50 [2] [nM] | IC50 [3] [nM] |
| --- | --- | --- | --- |
| CC1(C(=O)N2CCC(F)(F)CC2)CCCN1c1nc2c(c(Nc3cc(C4CCCC4)[nH]n3)n1)CCC2 (racemic) [compound 146, (1-(4-((5-cyclopentyl-1H-pyrazol-3-yl)amino)-6,7-dihydro-5H-cyclopenta[d]pyrimidin-2-yl)-2-methylpyrrolidin-2-yl)(4,4-difluoropiperidin-1-yl)methanone] | 1480 |  |  |
| CC(C)c1cc(Nc2nc(N3CCC[C@H]3C(=O)N(C)c3nccs3)nc3c2CCC3)n[nH]1 [68b, (S)-1-(4-((5-isopropyl-1H-pyrazol-3-yl)amino)-6,7-dihydro-5H-cyclopenta[d]pyrimidin-2-yl)-N-methyl-N-(thiazol-2-yl)pyrrolidine-2-carboxamide] | 167 | 316 | 41 |
| CC(C)(C)c1cc(Nc2nc(N3CCC[C@@H]3C(=O)N3CCC(F)(F)CC3)nc3c2CCC3)n[nH]1 [142a, (R)-(1-(4-((5-(tert-butyl)-1H-pyrazol-3-yl)amino)-6,7-dihydro-5H-cyclopenta[d]pyrimidin-2-yl)pyrrolidin-2-yl)(4,4-difluoropiperidin-1-yl)methanone] | > 1000 | > 1000 | > 1000 |
| CC(C)(C)c1cc(Nc2nc(N3CCC[C@H]3C(=O)N3CCC(F)(F)CC3)nc3c2CCC3)n[nH]1 [142b, (S)-(1-(4-((5-(tert-butyl)-1H-pyrazol-3-yl)amino)-6,7-dihydro-5H-cyclopenta[d]pyrimidin-2-yl)pyrrolidin-2-yl)(4,4-difluoropiperidin-1-yl)methanone] | > 1000 | > 1000 | > 1000 |
| CCC(=O)N1CCN(C(=O)[C@H]2CCCN2c2nc3c(c(Nc4cc(C5CCCC5)[nH]n4)n2)CCC3)CC1 [143a, 1-(4-((4-((5-cyclopentyl-1H-pyrazol-3-yl)amino)-6,7-dihydro-5H-cyclopenta[d]pyrimidin-2-yl)-D-prolyl)piperazin-1-yl)propan-1-one] | 13.7 | > 1000 | 398 |
| CCC(=O)N1CCN(C(=O)[C@@H]2CCCN2c2nc3c(c(Nc4cc(C5CCCC5)[nH]n4)n2)CCC3)CC1 [143b, (S)-1-(4-((4-((5-cyclopentyl-1H-pyrazol-3-yl)amino)-6,7-dihydro-5H-cyclopenta[d]pyrimidin-2-yl)prolyl)piperazin-1-yl)propan-1-one] | 310 | > 1000 | > 1000 |
| CCN(C(=O)[C@@H]1CCCN1c1nc2c(c(Nc3cc(C(C)(C)C)[nH]n3)n1)CCC2)c1nccs1 [144b, (S)-1-(4-((5-(tert-butyl)-1 H-pyrazol-3-yl)amino)-6,7-dihydro-5H-cyclopenta[d]pyrimidin-2-yl)-N-ethyl-N-(thiazol-2-yl)pyrrolidine-2-carboxamide] | > 1000 | > 1000 | > 1000 |
| CCN(C(=O)[C@@H]1CCCN1c1nc2c(c(Nc3cc(C(C)C)[nH]n3)n1)CCC2)c1nccs1 [145b, (S)—N-ethyl-1-(4-((5-isopropyl-1H-pyrazol-3-yl)amino)-6,7-dihydro-5H-cyclopenta[d]pyrimidin-2-yl)-N-(thiazol-2-yl)pyrrolidine-2-carboxamide] | 435 |  |  |
